Experimental data: ChEMBL document CHEMBL3352226, “Synthesis of novel derivatives of 4-methylbenzimidazole and evaluation of their biological activities” (Eur J Med Chem, 2014); call rule not given here

Experiments:
[1] = Antioxidant activity assessed as superoxide anion radical scavenging activity by nitroblue tetrazolium method; assay type: physicochemical
[2] = Antiglycation activity using BSA assessed as inhibition of AGE formation incubated at 37 degC for 9 days by fluorescence assay; assay type: physicochemical
[3] = Toxicity against human THP1 cells assessed as reduction in cell viability after 48 hrs by trypan blue dye exclusion method; assay type: cell-based; conditions: thp-1, 48 h
Leishmania major = experiment: Antileishmanial activity against Leishmania major JISH118 promastigotes infected in human THP1 cells by Giemsa staining method; assay type: functional, organism-based, THP-1
[4] = Antioxidant activity assessed as DPPH free radical scavenging activity incubated at 37 degC for 30 mins by microtiter plate reader based method; assay type: physicochemical
[5] = Antiglycation activity using BSA assessed as inhibition of AGE formation incubated at 37 degC for 9 days by fluorescence assay relative to untreated control; assay type: physicochemical; conditions: cattle, 216 h; further: test concentration or dose not given here
[6] = Leishmania major, JISH118, THP-1, read-out: IC50

Row | SMILES | IC50 [1] | IC50 ([2]; read-out: IC50) | Activity [3] | IC50 (Leishmania major; [6]) | IC50 [4] | IC50 (Leishmania major; thp-1) | IC50 [2] | inhibition (INH) [5]
1 | Cc1cccc2nc(-c3ccc(C(=O)N/N=C/c4cccc(O)c4O)cc3)[nH]c12 | 82 µM | 220 µM | Non-toxic | 37.8 µM | 12.1 µM | – | – | –
2 | Cc1cccc2nc(-c3ccc(C(=O)N/N=C/c4cc(O)ccc4O)cc3)[nH]c12 | 86.1 µM | 206 µM | Non-toxic | – | 18.5 µM | Not Active | – | –
3 | Cc1cccc2nc(-c3ccc(C(=O)N/N=C/c4ccc(O)c(O)c4)cc3)[nH]c12 | 81 µM | 190 µM | Non-toxic | – | 14.2 µM | Not Active | – | –
4 | Cc1cccc2nc(-c3ccc(C(=O)N/N=C/c4cc(O)cc(O)c4)cc3)[nH]c12 | 90 µM | 195 µM | Non-toxic | – | 17.3 µM | Not Active | – | –
5 | Cc1cccc2nc(-c3ccc(C(=O)N/N=C/c4ccc(O)cc4O)cc3)[nH]c12 | 92.1 µM | 140 µM | Non-toxic | – | 27.4 µM | Not Active | – | –
6 | Cc1cccc2nc(-c3ccc(C(=O)N/N=C/c4ccc(O)cc4)cc3)[nH]c12 | 101 µM | 150 µM | Non-toxic | – | 29 µM | Not Active | – | –
7 | COc1cc(/C=N/NC(=O)c2ccc(-c3nc4cccc(C)c4[nH]3)cc2)ccc1O | 104 µM | 271 µM | Non-toxic | – | 26.2 µM | Not Active | – | –
8 | Cc1cccc2nc(-c3ccc(C(=O)N/N=C/c4ccc(O)c(Br)c4)cc3)[nH]c12 | 190 µM | 350 µM | Non-toxic | – | 25.2 µM | Not Active | – | –
9 | Cc1cccc2nc(-c3ccc(C(=O)N/N=C/c4ccccc4O)cc3)[nH]c12 | 209 µM | 380 µM | Non-toxic | – | 54.1 µM | Not Active | – | –
10 | COc1ccc(/C=N/NC(=O)c2ccc(-c3nc4cccc(C)c4[nH]3)cc2)c(O)c1 | 202 µM | 340 µM | Non-toxic | – | 47.5 µM | Not Active | – | –
11 | Cc1cccc2nc(-c3ccc(C(=O)N/N=C/c4cccc(O)c4)cc3)[nH]c12 | 212 µM | 280 µM | Non-toxic | – | 60.2 µM | Not Active | – | –
12 | COc1ccc(/C=N/NC(=O)c2ccc(-c3nc4cccc(C)c4[nH]3)cc2)c(I)c1O | 210 µM | 405 µM | Non-toxic | – | 40.1 µM | Not Active | – | –
13 | COc1ccc(/C=N/NC(=O)c2ccc(-c3nc4cccc(C)c4[nH]3)cc2)cc1O | 222 µM | 360 µM | Non-toxic | – | 49.1 µM | Not Active | – | –
14 | COc1ccc(O)c(/C=N/NC(=O)c2ccc(-c3nc4cccc(C)c4[nH]3)cc2)c1 | 215 µM | 400 µM | Non-toxic | – | 74.2 µM | Not Active | – | –
15 | Cc1cccc2nc(-c3ccc(C(=O)N/N=C/c4ccc(F)cc4)cc3)[nH]c12 | 320 µM | – | Non-toxic | – | 90.2 µM | Not Active | Not Active | < 50%
16 | Cc1cccc2nc(-c3ccc(C(=O)N/N=C/c4ccccn4)cc3)[nH]c12 | 350 µM | – | Non-toxic | – | 94.3 µM | Not Active | Not Active | < 50%

Row | SMILES | IC50 [1] | IC50 ([2]; read-out: IC50) | Activity [3] | IC50 (Leishmania major; [6]) | IC50 [4] | IC50 (Leishmania major; thp-1) | IC50 [2] | inhibition (INH) [5]
17 | Cc1cccc2nc(-c3ccc(C(=O)N/N=C/c4cccnc4)cc3)[nH]c12 | 310 µM | – | Non-toxic | – | 105 µM | Not Active | Not Active | < 50%
18 | Cc1cccc2nc(-c3ccc(C(=O)N/N=C/c4ccncc4)cc3)[nH]c12 | 340 µM | – | Non-toxic | – | 88.4 µM | Not Active | Not Active | < 50%
19 | Cc1cccc2nc(-c3ccc(C(=O)N/N=C/c4ccc(Cl)cc4)cc3)[nH]c12 | 360 µM | – | Non-toxic | – | 120 µM | Not Active | Not Active | < 50%
20 | Cc1cccc(/C=N/NC(=O)c2ccc(-c3nc4cccc(C)c4[nH]3)cc2)c1 | 345 µM | – | Non-toxic | – | 150 µM | Not Active | Not Active | < 50%
21 | Cc1ccccc1/C=N/NC(=O)c1ccc(-c2nc3cccc(C)c3[nH]2)cc1 | 340 µM | – | Non-toxic | – | 158 µM | Not Active | Not Active | < 50%
22 | COc1ccc(/C=N/NC(=O)c2ccc(-c3nc4cccc(C)c4[nH]3)cc2)cc1 | 340 µM | – | Non-toxic | – | 140 µM | Not Active | Not Active | < 50%
23 | COc1cccc(/C=N/NC(=O)c2ccc(-c3nc4cccc(C)c4[nH]3)cc2)c1 | 345 µM | – | Non-toxic | – | 145 µM | Not Active | Not Active | < 50%
24 | COc1ccc(/C=N/NC(=O)c2ccc(-c3nc4cccc(C)c4[nH]3)cc2)cc1OC | 330 µM | – | Non-toxic | – | 120 µM | Not Active | Not Active | < 50%
25 | Cc1cccc2nc(-c3ccc(C(=O)N/N=C/c4ccco4)cc3)[nH]c12 | 310 µM | – | Non-toxic | – | 180 µM | Not Active | Not Active | < 50%
26 | Cc1cccc2nc(-c3ccc(C(=O)N/N=C/c4cccs4)cc3)[nH]c12 | 320 µM | – | Non-toxic | – | 110 µM | Not Active | Not Active | < 50%
27 | COC(=O)c1ccc(/C=N/NC(=O)c2ccc(-c3nc4cccc(C)c4[nH]3)cc2)cc1 | 322 µM | 501 µM | Non-toxic | – | 160 µM | Not Active | – | –
28 | Cc1cccc2nc(-c3ccc(C(=O)N/N=C/c4ccc([N+](=O)[O-])cc4)cc3)[nH]c12 | 312 µM | 450 µM | Non-toxic | – | 138 µM | Not Active | – | –
29 | N=C(N)c1ccc(OCCCCCOc2ccc(C(=N)N)cc2)cc1 [PENTAMIDINE] | – | – | – | 7.02 µM | – | – | – | –
30 | CCCOC(=O)c1cc(O)c(O)c(O)c1 [PROPYL GALLATE] | 106 µM | – | – | – | 30.3 µM | – | – | –
31 | C[C@@H]1O[C@@H](OC[C@H]2O[C@@H](Oc3c(-c4ccc(O)c(O)c4)oc4cc(O)cc(O)c4c3=O)[C@H](O)[C@@H](O)[C@@H]2O)[C@H](O)[C@H](O)[C@H]1O [RUTIN] | – | 294 µM | – | – | – | – | – | –
